Experimental findings from patent US20230203098A1, “HUMAN TRANSFERRIN RECEPTOR BINDING PEPTIDE” (priority 2020, published 2023) are described below.

Like-named read-outs stand apart in the source and are kept apart here. Where a SMILES comes first, the peptide text is derived from it. Bridges are numbered along the chain shown (N, C = ends). [ ]: non-standard residue; d: D form. The star is where a group is joined. X2 = O=C(O)c1cc(C(=O)*)ccc1-c1c2ccc(=O)cc-2oc2cc(O)ccc12; PEG12 = NCCOCCOCCOCCOCCOCCOCCOCCOCCOCCOCCOCCOCCC(=O)O; NMePhe(3-Cl) = CN[C@@H](Cc1cccc(Cl)c1)C(=O)O; NMeW = CN[C@@H](Cc1c[nH]c2ccccc12)C(=O)O; NMeY = CN[C@@H](Cc1ccc(O)cc1)C(=O)O

The target in this assay is transferrin receptor (hTfR) (Homo sapiens, UniProt P02786). Nature of the assay: Intermolecular interaction evaluation test between transferrin receptor (hTfR) and peptide by surface plasmon resonance (SPR). Type of assay: binding. A digest of the protocol: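 Receptor was Ni-captured and EDC/NHS-fixed on an NTA chip; running buffer HEPES pH 8.0 with NaCl, Tween 20, BSA and 1.0% DMSO.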
Sequence of transferrin receptor (hTfR) (P02786 whole entry): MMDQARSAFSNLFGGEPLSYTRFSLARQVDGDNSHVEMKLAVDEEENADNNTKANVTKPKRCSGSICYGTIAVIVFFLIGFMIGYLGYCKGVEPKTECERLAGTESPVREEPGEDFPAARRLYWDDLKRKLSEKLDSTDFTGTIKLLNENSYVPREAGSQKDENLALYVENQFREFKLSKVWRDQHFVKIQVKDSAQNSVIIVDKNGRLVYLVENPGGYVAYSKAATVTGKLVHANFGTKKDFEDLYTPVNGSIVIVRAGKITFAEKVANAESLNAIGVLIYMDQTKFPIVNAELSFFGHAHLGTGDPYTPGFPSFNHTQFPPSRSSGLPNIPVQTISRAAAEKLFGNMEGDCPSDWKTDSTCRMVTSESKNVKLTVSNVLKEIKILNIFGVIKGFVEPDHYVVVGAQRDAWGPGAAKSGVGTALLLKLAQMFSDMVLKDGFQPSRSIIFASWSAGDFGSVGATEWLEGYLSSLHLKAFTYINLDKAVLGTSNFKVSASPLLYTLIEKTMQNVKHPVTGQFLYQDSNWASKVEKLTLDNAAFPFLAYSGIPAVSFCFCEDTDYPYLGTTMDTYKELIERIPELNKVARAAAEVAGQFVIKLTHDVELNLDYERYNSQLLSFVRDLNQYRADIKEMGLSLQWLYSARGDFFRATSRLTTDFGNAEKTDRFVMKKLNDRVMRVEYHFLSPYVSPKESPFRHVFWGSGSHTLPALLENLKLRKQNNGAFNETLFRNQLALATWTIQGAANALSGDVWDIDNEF

Where [1] appears, read: SPR, peptides, linker-added peptides and FITC conjugates, Patent ID 203-230, read-out: KD.

With `CC[C@H](C)[C@@H]1NC(=O)[C@H](Cc2ccc(O)cc2)NC(=O)[C@H](Cc2ccc(O)cc2)NC(=O)[C@H](CC(N)=O)NC(=O)[C@H](Cc2c[nH]c3cc(F)ccc23)NC(=O)[C@H](C(C)C)NC(=O)[C@H](Cc2ccccc2)N(C)C(=O)[C@H](C(C)C)NC(=O)[C@H](C)NC(=O)CSC[C@@H](C(N)=O)NC(=O)[C@H](Cc2ccc(O)cc2)N(C)C(=O)[C@H](Cc2ccc(O)cc2)NC(=O)[C@H](CCCNC(=N)N)NC(=O)[C@H](CCCNC(=N)N)NC(=O)[C@H]([C@@H](C)CC)NC1=O` [compound 270], the Kd (binding to hTfR by SPR, Table 2 peptides, read-out: KD value (SPR) class) fell in the range of 1 to 100 nM. Take `CC[C@H](C)[C@@H]1NC(=O)[C@H](Cc2ccc(O)cc2)NC(=O)[C@H](Cc2ccc(O)cc2)NC(=O)[C@H](CC(N)=O)NC(=O)[C@H](Cc2c[nH]c3ccccc23)NC(=O)[C@H](C(C)C)NC(=O)[C@H](Cc2ccccc2)NC(=O)[C@H](C(C)C)NC(=O)[C@H](C)NC(=O)CSC[C@@H](C(=O)NCCOCCOCCOCCOCCOCCOCCOCCOCCOCCOCCOCCOCCC(=O)N[C@@H](CCCCNC(=O)c2ccc(-c3c4ccc(=O)cc-4oc4cc(O)ccc34)c(C(=O)O)c2)C(N)=O)NC(=O)[C@H](CC(=O)O)NC(=O)[C@H](CCCNC(=N)N)NC(=O)[C@@H]2CCCN2C(=O)[C@H](C(C)C)NC1=O` [compound 209] ({CH2CO}-AVFVWNYYIVPRDC[PEG12]K(X2)-NH2; thioether N-14): under setting [1], the Kd fell in the range of 1 to 100 nM. Still for that read-out and setting: the same measure for `CC[C@H](C)[C@@H]1NC(=O)[C@H](Cc2ccc(OC)cc2)NC(=O)[C@H](Cc2ccc(O)cc2)NC(=O)[C@H](CC(N)=O)NC(=O)[C@H](Cc2c[nH]c3ccccc23)N(C)C(=O)[C@H](C(C)C)NC(=O)[C@H](Cc2cccc(Cl)c2)N(C)C(=O)[C@H](CCC(=O)O)NC(=O)[C@H](C)NC(=O)CSC[C@@H](C(N)=O)NC(=O)[C@H](Cc2ccc(O)cc2)N(C)C(=O)[C@H](Cc2ccccc2)NC(=O)[C@@H](CCCNC(=N)N)NC(=O)[C@H](C)NC(=O)[C@H]([C@@H](C)CC)NC1=O` [compound 226] ({CH2CO}-AE[NMePhe(3-Cl)]V[NMeW]NYY(Me)IIA[dR]F[NMeY]C-NH2; thioether N-15): 100 to 1000 nM; for `CC[C@H](C)[C@@H]1NC(=O)[C@H](Cc2ccc(OC)cc2)NC(=O)[C@H](Cc2ccc(O)cc2)NC(=O)[C@H](CC(N)=O)NC(=O)[C@H](Cc2c[nH]c3ccccc23)N(C)C(=O)[C@H](C(C)C)NC(=O)[C@H](Cc2cccc(Cl)c2)N(C)C(=O)[C@H](CCC(=O)O)NC(=O)[C@H](C)NC(=O)CSC[C@@H](C(N)=O)NC(=O)[C@H](CCCNC(=N)N)NC(=O)[C@H](Cc2ccccc2)NC(=O)[C@H](CCCNC(=N)N)NC(=O)[C@H](CC(=O)O)NC(=O)[C@H]([C@@H](C)CC)NC1=O` [compound 227] ({CH2CO}-AE[NMePhe(3-Cl)]V[NMeW]NYY(Me)IIDRFRC-NH2; thioether N-15): 1 to 100 nM. In the case of `CC[C@H](C)[C@@H]1NC(=O)[C@H](Cc2ccc(OC)cc2)NC(=O)[C@H](Cc2ccc(O)cc2)NC(=O)[C@H](CC(N)=O)NC(=O)[C@H](Cc2c[nH]c3ccccc23)N(C)C(=O)[C@H](C(C)C)NC(=O)[C@H](Cc2cccc(Cl)c2)N(C)C(=O)[C@H](C(C)C)NC(=O)[C@H](C)NC(=O)CSC[C@@H](C(=O)NCC(=O)NCC(=O)NCC(=O)NCC(=O)N[C@@H](CO)C(=O)N[C@@H](CO)C(=O)N[C@@H](CS)C(N)=O)NC(=O)[C@H](Cc2ccc(O)cc2)N(C)C(=O)[C@H](Cc2ccccc2)NC(=O)[C@@H](CCCNC(=N)N)NC(=O)[C@H](CCCNC(=N)N)NC(=O)[C@H](CCCCCN)NC1=O` [compound 341], the Kd was 1 to 100 nM. In the case of `CC[C@H](C)[C@@H]1NC(=O)[C@H](Cc2ccc(OC)cc2)NC(=O)[C@H](Cc2ccc(O)cc2)NC(=O)[C@H](CC(N)=O)NC(=O)[C@H](Cc2c[nH]c3ccc(Cl)cc23)NC(=O)[C@H](C(C)C)NC(=O)[C@H](Cc2cccc(Cl)c2)N(C)C(=O)[C@H](C(C)C)NC(=O)[C@H](C)NC(=O)CSC[C@@H](C(N)=O)NC(=O)[C@H](Cc2ccc(O)cc2)N(C)C(=O)[C@H](Cc2ccccc2)NC(=O)[C@@H](CCCNC(=N)N)NC(=O)[C@H](CCCNC(=N)N)NC(=O)[C@H]([C@@H](C)CC)NC1=O` [compound 464], the Kd (SPR, hTfR, class symbols A-D, read-out: KD) is above 1000 nM.

As usually defined, the Kd is the free concentration of one partner at which half of the binding sites on the other are occupied at equilibrium, for simple one-to-one binding.
